# Test results: patent US6274636A (priority 1999, dated 2001)
# Assays:
# [1] = tested on: 5-HT1C receptor; experiment: activity at the 5-HT1C receptor; conditions: anhydrous Form II
# [2] = tested on: muscarinic cholinergic receptor; experiment: pharmacological studies, muscarinic cholinergic receptor activity
# [3] = tested on: rats; experiment: in vivo animal observation, overdose in rats; conditions: rats exposed to an overdose
# [4] = tested on: clinical subjects; experiment: clinical observation, pupil response; type: in vivo, human
# [5] = tested on: muscarinic receptor subtype; experiment: in vivo animal and clinical observations, muscarinic receptor subtype profile
# [6] = human clinical trials, safety profile; type: in vivo
# [7] = detection of radiolabelled compound in saliva; type: in vivo
# [8] = known; cited from earlier work
compound,measurement,setting,value
"Cc1cc2c(s1)Nc1ccccc1N=C2N1CCN(C)CC1 [anhydrous Form II, 2-methyl-4-(4-methyl-1-piperazinyl)-10H-thieno[2,3-b][1,5]benzodiazepine]",activity at the 5-HT1C receptor,[1],active
"Cc1cc2c(s1)Nc1ccccc1N=C2N1CCN(C)CC1 [2-methyl-4-(4-methyl-1-piperazinyl)-10H-thieno[2,3-b][1,5]benzodiazepine]",muscarinic cholinergic receptor activity,[2],has muscarinic cholinergic receptor activity
same,salivation,[3],significant salivation
same,pupilary response,[4],pupilary constriction rather than the expected pupilary dilation
same,muscarinic receptor subtype profile,[5],complex muscarinic receptor subtype profile
same,safety profile,[6],favorable safety profile
same,detection in the saliva,[7],can be detected in the saliva
same,induction of extrapyramidal symptoms,[8],less likely to induce extrapyramidal symptoms
